Data from ChEMBL document CHEMBL1275457, “Postantibiotic effects and bactericidal activities of levofloxacin and gatifloxacin at concentrations simulating those of topical ophthalmic administration against fluoroquinolone-resistant and fluoroquinolone-sensitive methicillin-resistant Staphylococcus aureus strains” (2008).
Values after ≈ are worked out from the molar mass of the structure shown. Active and inactive are the calls of the source. No cut-off for these calls is given here.

Columns and labels:
Staphylococcus aureus [1] = test: Antimicrobial activity against high level levofloxacin and methicillin-resistant Staphylococcus aureus JCSC 6763 expressing gyrA Ser84Leu/Ser85Pro and grlA Ser80Phe/Glu84Lys mutants by broth microdilution method; format: functional
Staphylococcus aureus [2] = test: Antimicrobial activity against high level levofloxacin and methicillin-resistant Staphylococcus aureus JCSC 6764 expressing gyrA Ser84Leu, gyrB Asp437Glu norA T389C and grlA Ser80Phe/Glu84Lys mutants by broth microdilution method; format: functional
Staphylococcus aureus [3] = test: Antimicrobial activity against high level levofloxacin and methicillin-resistant Staphylococcus aureus JCSC 6765 expressing gyrA Ser84Leu, norA T389C and grlA Ser80Phe/Glu84Lys mutants by broth microdilution method; format: functional
Staphylococcus aureus [4] = test: Antimicrobial activity against low level levofloxacin and methicillin-resistant Staphylococcus aureus JCSC 6766 expressing gyrA Glu84Lys and grlA Ser80Phe mutants by broth microdilution method; format: functional
Staphylococcus aureus [5] = test: Antimicrobial activity against low level levofloxacin and methicillin-resistant Staphylococcus aureus JCSC 6767 expressing gyrA Glu84Lys and grlA Ser80Phe mutants by broth microdilution method; format: functional
Staphylococcus aureus [6] = test: Antimicrobial activity against low level levofloxacin and methicillin-resistant Staphylococcus aureus JCSC 6768 expressing gyrA Glu84Lys and grlA Ser80Phe mutants by broth microdilution method; format: functional
Staphylococcus aureus [7] = test: Antimicrobial activity against levofloxacin-sensitive and methicillin-resistant Staphylococcus aureus JCSC 6769 by broth microdilution method; format: functional
Staphylococcus aureus [8] = test: Antimicrobial activity against levofloxacin-sensitive and methicillin-resistant Staphylococcus aureus JCSC 6770 by broth microdilution method; format: functional
Staphylococcus aureus [9] = test: Antimicrobial activity against levofloxacin-sensitive and methicillin-resistant Staphylococcus aureus JCSC 6822 harboring mutation in norA gene by broth microdilution method; format: functional
Staphylococcus aureus [10] = test: Bactericidal activity against methicillin-resistant Staphylococcus aureus at 4 times MIC upto 60 mins by time-kill assay; format: functional, organism-based
Staphylococcus aureus [11] = test: Bactericidal activity against methicillin-resistant Staphylococcus aureus at 8 times MIC upto 60 mins by time-kill assay; format: functional, organism-based
Staphylococcus aureus [12] = test: Bactericidal activity against methicillin-resistant Staphylococcus aureus at 16 times MIC upto 60 mins by time-kill assay; format: functional, organism-based
Staphylococcus aureus [13] = test: Bactericidal activity against low level levofloxacin and methicillin-resistant Staphylococcus aureus at 4 times MIC after 24 hrs by time-kill assay; format: functional, organism-based
Staphylococcus aureus [14] = test: Bactericidal activity against high level levofloxacin and methicillin-resistant Staphylococcus aureus at 4 times MIC after 24 hrs by time-kill assay; format: functional, organism-based
Staphylococcus aureus [15] = test: Bactericidal activity against levofloxacin-sensitive and methicillin-resistant Staphylococcus aureus at 4 times MIC after 24 hrs by time-kill assay; format: functional, organism-based
Staphylococcus aureus [16] = test: Bactericidal activity against low level levofloxacin and methicillin-resistant Staphylococcus aureus at 8 times MIC after 24 hrs by time-kill assay; format: functional, organism-based
Staphylococcus aureus [17] = test: Bactericidal activity against high level levofloxacin and methicillin-resistant Staphylococcus aureus at 8 times MIC after 24 hrs by time-kill assay; format: functional, organism-based
Staphylococcus aureus [18] = test: Bactericidal activity against levofloxacin-sensitive and methicillin-resistant Staphylococcus aureus at 8 times MIC after 24 hrs by time-kill assay; format: functional, organism-based
Staphylococcus aureus [19] = test: Bactericidal activity against low level levofloxacin and methicillin-resistant Staphylococcus aureus at 16 times MIC after 24 hrs by time-kill assay; format: functional, organism-based
Staphylococcus aureus [20] = test: Bactericidal activity against high level levofloxacin and methicillin-resistant Staphylococcus aureus at 16 times MIC after 24 hrs by time-kill assay; format: functional, organism-based
Staphylococcus aureus [21] = test: Bactericidal activity against levofloxacin-sensitive and methicillin-resistant Staphylococcus aureus at 16 times MIC after 24 hrs by time-kill assay; format: functional, organism-based
Staphylococcus aureus [22] = test: Bactericidal activity against low level levofloxacin and methicillin-resistant Staphylococcus aureus at 2048 ug/ml after 24 hrs by time-kill assay; format: functional, organism-based
Staphylococcus aureus [23] = test: Bactericidal activity against high level levofloxacin and methicillin-resistant Staphylococcus aureus at 2048 ug/ml after 24 hrs by time-kill assay; format: functional, organism-based
Staphylococcus aureus [24] = test: Bactericidal activity against levofloxacin-sensitive and methicillin-resistant Staphylococcus aureus at 2048 ug/ml after 24 hrs by time-kill assay; format: functional, organism-based
Staphylococcus aureus [25] = test: Bactericidal activity against low level levofloxacin and methicillin-resistant Staphylococcus aureus at 4 times MIC after 120 mins by time-kill assay; format: functional, organism-based
Staphylococcus aureus [26] = test: Bactericidal activity against low level levofloxacin and methicillin-resistant Staphylococcus aureus at 8 times MIC after 120 mins by time-kill assay; format: functional, organism-based
Staphylococcus aureus [27] = test: Bactericidal activity against low level levofloxacin and methicillin-resistant Staphylococcus aureus at 16 times MIC after 120 mins by time-kill assay; format: functional, organism-based

Row | SMILES | MIC (Staphylococcus aureus [1]) [µg/mL] | MIC (Staphylococcus aureus [2]) [µg/mL] | MIC (Staphylococcus aureus [3]) [µg/mL] | MIC (Staphylococcus aureus [4]) [µg/mL] | MIC (Staphylococcus aureus [5]) [µg/mL] | MIC (Staphylococcus aureus [6]) [µg/mL] | MIC (Staphylococcus aureus [7]) [µg/mL] | MIC (Staphylococcus aureus [8]) [µg/mL] | MIC (Staphylococcus aureus [9]) [µg/mL] | Activity (Staphylococcus aureus [10]) | Activity (Staphylococcus aureus [11]) | Activity (Staphylococcus aureus [12]) | Activity (Staphylococcus aureus [13]) | Activity (Staphylococcus aureus [14]) | Activity (Staphylococcus aureus [15]) | Activity (Staphylococcus aureus [16]) | Activity (Staphylococcus aureus [17]) | Activity (Staphylococcus aureus [18]) | Activity (Staphylococcus aureus [19]) | Activity (Staphylococcus aureus [20]) | further results
1 | C[C@H]1COc2c(N3CCN(C)CC3)c(F)cc3c(=O)c(C(=O)O)cn1c23.C[C@H]1COc2c(N3CCN(C)CC3)c(F)cc3c(=O)c(C(=O)O)cn1c23.O [LEVOFLOXACIN] | 512 | 256 | 64 | 8 | 8 | 4 | 0.5 | 0.25 | 0.25 | inactive | inactive | inactive | Active | Active | Active | Active | Active | Active | Active | Active | Activity (Staphylococcus aureus [21]): Active; Activity (Staphylococcus aureus [22]): Active; Activity (Staphylococcus aureus [23]): Active; Activity (Staphylococcus aureus [24]): Active
2 | COc1c(N2CCNC(C)C2)c(F)cc2c(=O)c(C(=O)O)cn(C3CC3)c12 (stereo not given) [GATIFLOXACIN] | 128 (≈ 341 µM) | 32 (≈ 85.2 µM) | 16 (≈ 42.6 µM) | 2 (≈ 5.33 µM) | 2 (≈ 5.33 µM) | 2 (≈ 5.33 µM) | 0.125 (≈ 0.333 µM) | 0.125 (≈ 0.333 µM) | 0.125 (≈ 0.333 µM) | inactive | inactive | inactive | Active | Active | Active | Active | Active | Active | Active | Active | Activity (Staphylococcus aureus [25]): Active; Activity (Staphylococcus aureus [26]): Active; Activity (Staphylococcus aureus [27]): Active; Activity (Staphylococcus aureus [21]): Active; Activity (Staphylococcus aureus [22]): Active; Activity (Staphylococcus aureus [23]): Active; Activity (Staphylococcus aureus [24]): Active
3 | Cc1onc(-c2ccccc2)c1C(=O)N[C@@H]1C(=O)N2[C@@H]1SC(C)(C)[C@@H]2C(=O)O [OXACILLIN] | 512 (≈ 1280 µM) | 512 (≈ 1280 µM) | 256 (≈ 638 µM) | 512 (≈ 1280 µM) | 256 (≈ 638 µM) | 256 (≈ 638 µM) | 512 (≈ 1280 µM) | 256 (≈ 638 µM) | 128 (≈ 319 µM) | – | – | – | – | – | – | – | – | – | – | – | –
